Reference: patent US20160151461A1, “Cardio-Metabolic and Vascular Effects of GLP-1 Metabolites” (THE TRUSTEES OF THE UNIVERSITY OF PENNSYLVANIA, priority 2013, published 2016)
No end group written: not given here.

Columns and labels:
AMP kinase = test: isolated isovolumic rat heart, activation of AMP kinase; settings: for AMPK activation in presence of EXE (inhibits activation of the GLP-1 receptor): with EXE; for AMPK activation in presence of pertussus toxin (PTX): with PTX (Gi); for AMPK activation in presence of STO609 (CAM kinase): with STO609
From the text: It is largely unknown how GLP-1 stimulates glucose uptake independent of insulin. A candidate mechanism involves the activation of AMP kinase which causes GLUT translocation and glucose uptake independent of insulin. The isolated isovolumic rat heart was studied as a model in which myocardial specific responses can be observed (FIG. 4).

myocardium; donor organs = test: myocardial glucose uptake and preconditioning of donor organs against ischemic injury (summary statement)
[1] = tested on: conscious chronically instrumented dogs with pacing induced heart failure; test: pacing induced model of dilated cardiomyopathy in conscious chronically instrumented dogs (72 hours of rapid ventricular pacing); type: in vivo; settings: after 72 hours of rapid ventricular pacing, vs Control
Experimental: In order to compare the vasoactive effects of different classes of incretins, experiments were designed to study the pacing induced model of dilated cardiomyopathy in conscious chronically instrumented dogs (FIG. 3). These animals were instrumented to examine the effects of equal concentrations of various classes of incretins on coronary blood flow and renal blood flow. All dogs underwent 72 hours of rapid ventricular pacing following which coronary flow responses were measured (Control). Rapid pacing was associated with 30-35% declines in coronary blood flow and renal blood flow respectively. […] This supports the notion that the native peptide and active metabolites have vasoactive as well as glucose-stimulatory properties. The renal vascular effects support the claims for use in heart failure complicated by renal failure (cardio-renal syndrome). The coronary vasodilator properties support the claims for the use in acute coronary syndromes and microvascular angina.

[2] = tested on: conscious, chronically instrumented dogs; test: rapid pacing induced stress (72 hour) in conscious, chronically instrumented dogs, hemodynamic measurements; type: in vivo; settings: 72 hours rapid pacing stress, vs sham vehicle
From the text: FIG. 7 illustrates characteristic instrumentation of conscious, chronically instrumented dogs studied in the laboratory. Under sterile surgical technique, the animals are instrumented as indicated and allowed to recover fully from their surgery. LV, aortic, and left atrial catheters were used to measure pressures. LV Konigsberg® transducer was used to measure isovolumic contractility and relaxation as measures of systolic and diastolic function. Ultrasonic dimension crystals were used to measure LV shortening and LV filling rates. Pacing leads were attached to the left atrial appendage. Transonics® flow probes were placed around the left circumflex coronary artery and right renal artery to measure coronary and renal blood flow.
Experiments were performed where 25 conscious, chronically instrumented dogs (FIG. 7) were subjected to a rapid pacing induced stress which recapitulates the hemodynamic perturbations experienced by patients with sudden onset of paroxysmal atrial fibrillation (FIG. 8). Dogs were studied before and daily during the 72 hour pacing stress. […] All measurements were made during intrinsic sinus rhythm 20-30 minutes after cessation of pacing. Hemodynamic measurements included: • LV systolic and diastolic pressures, mean arterial pressures, heart rate • Systolic function: LV contractility (systolic contractile function), LV fractional shortening • Diastolic function: LV isovolumic relaxation time constant, LV filling rate • Flows: systemic, coronary and renal blood flows

[3] = in vivo; cited from earlier work
[4] = tested on: patients with mild heart failure; settings: infused for 48 hours, NYHA Class II; cited from earlier work
[5] = tested on: patients with advanced heart failure; settings: 5 weeks of continuous infusion, NYHA Class IIIB and IV; cited from earlier work
[6] = tested on: large animal models of advanced heart failure; settings: cited from earlier work
advanced heart failure = settings: cited from earlier work
[7] = tested on: normal, conscious, chronically instrumented dogs; test: hyperglycemic clamp studies in normal, conscious, chronically instrumented dogs; type: in vivo
Experimental: To determine the effect of GLP-1 (32-36) on coronary blood flow, hyperglycemic clamp studies were conducted in normal, conscious, chronically instrumented dogs (n=3), in which plasma glucose was raised to 180 mg/dl by continuous infusion of glucose (FIG. 1). The plasma glucose concentration was monitored continuously as was plasma insulin response. In the control studies, the 5 dogs underwent the 3 hour hyperglycemic clamp. On a separate occasion, the same animals underwent a 3 hour hyperglycemic clamp in which GLP-1 (32-36) was infused beginning in the second hour.
Myocardial glucose uptake is calculated as the product of the difference in the arterial-coronary sinus glucose content and the average coronary blood flow. The increase in myocardial glucose uptake is in excess of that attributable to the increase in coronary blood flow alone.

## Glu-Gly-Thr-Phe-Thr-Ser-Asp-Val-Ser-Ser-Tyr-Leu-Glu-Gly-Gln-Ala-Ala-Lys-Glu-Phe-Ile-Ala-Trp-Leu-Val-Lys-Gly-Arg (EGTFTSDVSSYLEGQAAKEFIAWLVKGR-NH2) [GLP-1 (9-36) amide]
AMP kinase; 60 minutes of perfusion
  phosphorylation and activation of AMP kinase: increased the phosphorylation and the activation of AMP kinase
AMP kinase
  AMPK activation in presence of EXE (inhibits activation of the GLP-1 receptor): GLP-1 receptor independent
  AMPK activation in presence of pertussus toxin (PTX): pertussus toxin (Gi) and Ca-Calmodulin dependent
  AMPK activation in presence of STO609 (CAM kinase): pertussus toxin (Gi) and Ca-Calmodulin dependent
AMP kinase; listed as GLP-1 (9-36)
  AMPK activation in presence of EXE (inhibits activation of the GLP-1 receptor): not blocked
  AMPK activation in presence of pertussus toxin (PTX): blocked by pertussus toxin
  AMPK activation in presence of STO609 (CAM kinase): blocked by STO609
AMP kinase; with NEPI
  AMPK activation under neuroendopeptidase inhibition (NEPI): abolished
myocardium; donor organs
  preconditioning donor organs against ischemic injury: active
  stimulating glucose uptake into myocardium in a non-insulin dependent fashion: active
[1]
  coronary blood flow: preserved coronary and renal blood flow to a greater extent than seen in control
  renal blood flow: preserved coronary and renal blood flow to a greater extent than seen in control
[2]
  LV systolic and diastolic function: mitigated the declines
  coronary blood flow: preserved
  renal blood flow: preserved
  systemic vascular resistance: mitigated the declines in LV systolic and diastolic function and the rise

## Glucagon-like peptide-1 [GLP-1]
[3]
  active half-life time: 1 to 2 min
  half-life time in blood: ≤ 5 min

## His-Ala-Glu-Gly-Thr-Phe-Thr-Ser-Asp-Val-Ser-Ser-Tyr-Leu-Glu-Gly-Gln-Ala-Ala-Lys-Glu-Phe-Ile-Ala-Trp-Leu-Val-Lys-Gly-Arg [GLP-1 (7-36) amide]
[4]
  benefit: no benefit
[1]
  coronary blood flow: preserved coronary and renal blood flow to a greater extent than seen in control
  renal blood flow: preserved coronary and renal blood flow to a greater extent than seen in control
[5]
  functional outcomes: improved functional outcomes
[6]; in vivo, iv
  expression of mitochondrial uncoupling protein 3 (UCP-3) and mitochondrial cytochrome oxidase (Complex IV): increased
[6]; in vivo
  mitochondrial reactive oxygen species (ROS) generation: decreased
[6]; independent of insulin signaling pathways
  cell survival pathways (ras dependent activation of p38 MAP kinase, induction of NOS2): activates
Advanced heart failure
  elevated levels of plasma glucagon: suppresses
  insulin action: augments
[2]
  LV systolic and diastolic function: mitigated the declines
  coronary blood flow: preserved
  renal blood flow: preserved
  systemic vascular resistance: mitigated the declines in LV systolic and diastolic function and the rise

## Leu-Val-Lys-Gly-Arg (LVKGR-NH2) [GLP-1 (32-36) amide]
[7]; 3 hour hyperglycemic clamp, plasma glucose 180 mg/dl, peptide infused beginning in the second hour, vs control clamp
  increase in coronary blood flow: significantly greater increase
[7]; hyperglycemic clamp, matched hyperinsulinemia, vs control
  increase in myocardial glucose uptake: significantly greater increase
myocardium; donor organs
  preconditioning donor organs against ischemic injury: active
  stimulating glucose uptake into myocardium in a non-insulin dependent fashion: active
